Source: ChEMBL document CHEMBL1146680, “A highly toxic morphine-3-glucuronide derivative” (Bioorg Med Chem Lett, 2004)
Active and inactive are the calls of the source. The calls are words filed in the database; no cut-off is given here.

Legend:
Rattus norvegicus [1] = test: Opioid agonist activity by measuring the analgesia produced after 5 mg/kg administration in rats; none; format: functional, organism-based; parameters: dose 5 mg/kg
Rattus norvegicus [2] = test: Opioid agonist activity by measuring the analgesia produced after 10 mg/kg administration in rats; none; format: functional, organism-based; parameters: dose 10 mg/kg
Rattus norvegicus [3] = test: Opioid agonist activity by measuring the analgesia produced after 1 mg/kg administration in rats; none; format: functional, organism-based; parameters: dose 1 mg/kg
Rattus norvegicus [4] = test: Reversion of toxic effect (1 ng/kg) by naloxone given 20 mins (before the compound) at a dose of 10 mg/kg; no improvement in survival observed; format: ADME, organism-based; parameters: dose 10 mg/kg; details: in vivo
Rattus norvegicus [5] = test: Reversion of toxic effect (1 ng/kg) by naloxone given 15 mins (before the compound) at a dose of 10 mg/kg; no improvement in survival observed; format: organism-based; parameters: dose 10 mg/kg; details: in vivo, 0.25 h
Rattus norvegicus [6] = test: Effect on rats after 30 mins of 0.05 mg/kg administration; death observed; format: ADME, organism-based; parameters: dose 0.05 mg/kg; details: in vivo, 0.5 h
Rattus norvegicus [7] = test: Reversion of toxic effect (1 ng/kg) by naloxone given 20 mins (after the compound) at a dose of 5 mg/kg; no improvement in survival observed; format: organism-based; parameters: dose 5 mg/kg; details: in vivo
Rattus norvegicus [8] = test: Reversion of toxic effect (1 ng/kg) by naloxone given 30 mins (after the compound) at a dose of 1 mg/kg; no improvement in survival observed; format: ADME, organism-based; parameters: dose 1 mg/kg; details: in vivo, 0.5 h
Rattus norvegicus [9] = test: Reversion of toxic effect (1 ng/kg) by naloxone given 15 mins (after the compound) at a dose of 5 mg/kg; no improvement in survival observed; format: ADME, organism-based; parameters: dose 5 mg/kg; details: in vivo, 0.25 h
Rattus norvegicus [10] = test: Reversion of toxic effect (1 ng/kg) by naloxone given 10 mins (after the compound) at a dose of 1 mg/kg; no improvement in survival observed; format: organism-based; parameters: dose 1 mg/kg; details: in vivo
Rattus norvegicus [11] = test: Reversion of toxic effect (1 ng/kg) by naloxone given 30 mins (after the compound) at a dose of 10 mg/kg; no improvement in survival observed; format: organism-based; parameters: dose 10 mg/kg; details: in vivo, 0.5 h
Rattus norvegicus [12] = test: Effect on rats after 30 mins of 0.005 mg/kg administration; death observed; format: ADME, organism-based; parameters: dose 0.005 mg/kg; details: in vivo, 0.5 h
Mus musculus [13] = test: Effect after 1 ng/kg i.p. administration was measured by mice paw pressure test; no analgesia observed; format: functional, organism-based
Rattus norvegicus [14] = test: Reversion of toxic effect (1 ng/kg) by naloxone given 15 mins (after the compound) at a dose of 1 mg/kg; no improvement in survival observed; format: organism-based; parameters: dose 1 mg/kg; details: in vivo, 0.25 h
Rattus norvegicus [15] = test: Effect on rats after 30 mins of 0.5 mg/kg administration; death observed; format: ADME, organism-based; parameters: dose 0.5 mg/kg; details: in vivo, 0.5 h
Rattus norvegicus [16] = test: Reversion of toxic effect (1 ng/kg) by naloxone given 20 mins (before the compound) at a dose of 1 mg/kg; no improvement in survival observed; format: organism-based; parameters: dose 1 mg/kg; details: in vivo
Rattus norvegicus [17] = test: Reversion of toxic effect (1 ng/kg) by naloxone given 30 mins (after the compound) at a dose of 5 mg/kg; no improvement in survival observed; format: ADME, organism-based; parameters: dose 5 mg/kg; details: in vivo, 0.5 h
Rattus norvegicus [18] = test: Effect on rats after 30 mins of 1 ng/kg administration; death observed; format: ADME, organism-based; details: in vivo, 1e-06 mg/kg, 0.5 h
Rattus norvegicus [19] = test: Reversion of toxic effect (1 ng/kg) by naloxone given 15 mins (before the compound) at a dose of 1 mg/kg; no improvement in survival observed; format: organism-based; parameters: dose 1 mg/kg; details: in vivo, 0.25 h
Mus musculus [20] = test: Effect after 1 ng/kg i.p. administration was measured by mice tail flick test; no analgesia observed; format: functional, organism-based
Rattus norvegicus [21] = test: Reversion of toxic effect (1 ng/kg) by naloxone given 10 mins (before the compound) at a dose of 1 mg/kg; no improvement in survival observed; format: organism-based; parameters: dose 1 mg/kg; details: in vivo
Rattus norvegicus [22] = test: Reversion of toxic effect (1 ng/kg) by naloxone given 20 mins (after the compound) at a dose of 1 mg/kg; no improvement in survival observed; format: ADME, organism-based; parameters: dose 1 mg/kg; details: in vivo
Rattus norvegicus [23] = test: Reversion of toxic effect (1 ng/kg) by naloxone given 10 mins (after the compound) at a dose of 5 mg/kg; no improvement in survival observed; format: ADME, organism-based; parameters: dose 5 mg/kg; details: in vivo
Rattus norvegicus [24] = test: Reversion of toxic effect (1 ng/kg) by naloxone given 10 mins (before the compound) at a dose of 5 mg/kg; no improvement in survival observed; format: ADME, organism-based; parameters: dose 5 mg/kg; details: in vivo
Rattus norvegicus [25] = test: Reversion of toxic effect (1 ng/kg) by naloxone given 10 mins (before the compound) at a dose of 10 mg/kg; no improvement in survival observed; format: ADME, organism-based; parameters: dose 10 mg/kg; details: in vivo
Rattus norvegicus [26] = test: Effect on rats after 30 mins of 5 mg/kg administration; death observed; format: ADME, organism-based; parameters: dose 5 mg/kg; details: in vivo, 0.5 h
Rattus norvegicus [27] = test: Reversion of toxic effect (1 ng/kg) by naloxone given 20 mins (before the compound) at a dose of 5 mg/kg; no improvement in survival observed; format: ADME, organism-based; parameters: dose 5 mg/kg; details: in vivo
Rattus norvegicus [28] = test: Reversion of toxic effect (1 ng/kg) by naloxone given 15 mins (after the compound) at a dose of 10 mg/kg; no improvement in survival observed; format: ADME, organism-based; parameters: dose 10 mg/kg; details: in vivo, 0.25 h
Rattus norvegicus [29] = test: Reversion of toxic effect (1 ng/kg) by naloxone given 20 mins (after the compound) at a dose of 10 mg/kg; no improvement in survival observed; format: ADME, organism-based; parameters: dose 10 mg/kg; details: in vivo
Rattus norvegicus [30] = test: Effect on rats after 30 mins of 1 mg/kg administration; death observed; format: ADME, organism-based; parameters: dose 1 mg/kg; details: in vivo, 0.5 h
Rattus norvegicus [31] = test: Effect on rats after 30 mins of 2.5 mg/kg administration; death observed; format: ADME, organism-based; parameters: dose 2.5 mg/kg; details: in vivo, 0.5 h
Rattus norvegicus [32] = test: Reversion of toxic effect (1 ng/kg) by naloxone given 15 mins (before the compound) at a dose of 5 mg/kg; no improvement in survival observed; format: ADME, organism-based; parameters: dose 5 mg/kg; details: in vivo, 0.25 h
Rattus norvegicus [33] = test: Reversion of toxic effect (1 ng/kg) by naloxone given 10 mins (after the compound) at a dose of 10 mg/kg; no improvement in survival observed; format: ADME, organism-based; parameters: dose 10 mg/kg; details: in vivo
Rattus norvegicus [34] = test: Effect after 5 mg/kg i.p. administration was measured by rat tail flick test; no analgesia observed; format: functional, organism-based; parameters: dose 5 mg/kg
Rattus norvegicus [35] = test: Effect after 10 mg/kg i.p. administration was measured by rat tail flick test; no analgesia observed; format: functional, organism-based; parameters: dose 10 mg/kg
Rattus norvegicus [36] = test: Effect after 1 mg/kg i.p. administration was measured by rat tail flick test; no analgesia observed; format: functional, organism-based; parameters: dose 1 mg/kg
Rattus norvegicus [37] = test: Effect after 1 mg/kg i.p. administration was measured by rat paw pressure test; no analgesia observed; format: functional, organism-based; parameters: dose 1 mg/kg
Rattus norvegicus [38] = test: Inhibition of analgesia by (5 mg/kg) administered 10 min after morphine (5 mg/kg); inhibited; format: functional, organism-based
Rattus norvegicus [39] = test: Effect after 5 mg/kg i.p. administration was measured by rat paw pressure test; no analgesia observed; format: functional, organism-based; parameters: dose 5 mg/kg
Rattus norvegicus [40] = test: Effect after 10 mg/kg i.p. administration was measured by rat paw pressure test; no analgesia observed; format: functional, organism-based; parameters: dose 10 mg/kg
Rattus norvegicus [41] = test: Opioid antagonist activity (30 mg/kg, peripherally) was determined by measuring the analgesia produced by morphine given 10 mins (after the compound) at a dose of 5 mg/kg; no effect; format: functional, organism-based; parameters: dose 5 mg/kg
Rattus norvegicus [42] = test: Opioid antagonist activity (5 mg/kg, peripherally) was determined by measuring the analgesia produced by morphine given 10 mins (after the compound) at a dose of 5 mg/kg; no effect; format: functional, organism-based; parameters: dose 5 mg/kg
Rattus norvegicus [43] = test: Opioid antagonist activity (1 mg/kg, peripherally) was determined by measuring the analgesia produced by morphine given 10 mins (after the compound) at a dose of 5 mg/kg; no effect; format: functional, organism-based; parameters: dose 5 mg/kg
Rattus norvegicus [44] = test: Analgesic effect on rats after 30 mins of 5 mg/kg administration; value ranges from 60-70%; format: functional
Rattus norvegicus [45] = test: Opioid antagonist activity (1 mg/kg, peripherally) was determined by measuring the analgesia produced by morphine given 20 mins (after the compound) at a dose of 5 mg/kg; no effect; format: functional, organism-based; parameters: dose 5 mg/kg

CN1CC[C@]23c4c5ccc(O[C@@H]6O[C@H](C(=O)O)[C@@H](O)[C@H](O)[C@H]6O)c4O[C@H]2[C@@H](O)C=C[C@H]3[C@H]1C5 (stereo in doubt; form 2)
Activity (Rattus norvegicus [1]): inactive | Activity (Rattus norvegicus [2]): inactive | Activity (Rattus norvegicus [3]): inactive

CCCCCCCCNC(=O)C1OC(Oc2ccc3c4c2O[C@H]2[C@@H](O)C=C[C@H]5[C@@H](C3)N(C)CC[C@@]452)C(O)C(O)C1O (stereo not given in full)
Activity (Rattus norvegicus [4]): no improvement in survival | Activity (Rattus norvegicus [5]): no improvement in survival | Effect (Rattus norvegicus [6]): Death | Activity (Rattus norvegicus [7]): no improvement in survival | Activity (Rattus norvegicus [8]): no improvement in survival | Activity (Rattus norvegicus [9]): no improvement in survival | Activity (Rattus norvegicus [10]): no improvement in survival | Activity (Rattus norvegicus [11]): no improvement in survival | Effect (Rattus norvegicus [12]): Death | Effect (Mus musculus [13]): Death | Activity (Rattus norvegicus [14]): no improvement in survival | Effect (Rattus norvegicus [15]): Death | Activity (Rattus norvegicus [16]): no improvement in survival | Activity (Rattus norvegicus [17]): no improvement in survival | Effect (Rattus norvegicus [18]): Death | Activity (Rattus norvegicus [19]): no improvement in survival | Effect (Mus musculus [20]): Death | Activity (Rattus norvegicus [21]): no improvement in survival | Activity (Rattus norvegicus [22]): no improvement in survival | Activity (Rattus norvegicus [23]): no improvement in survival | Activity (Rattus norvegicus [24]): no improvement in survival | Activity (Rattus norvegicus [25]): no improvement in survival | Effect (Rattus norvegicus [26]): Death | Activity (Rattus norvegicus [27]): no improvement in survival | Activity (Rattus norvegicus [28]): no improvement in survival | Activity (Rattus norvegicus [29]): no improvement in survival | Effect (Rattus norvegicus [30]): Death | Effect (Rattus norvegicus [31]): Death | Activity (Rattus norvegicus [32]): no improvement in survival | Activity (Rattus norvegicus [33]): no improvement in survival

CN1CC[C@]23c4c5ccc(OC6OC(C(N)=O)C(O)C(O)C6O)c4O[C@H]2[C@@H](O)C=C[C@H]3[C@H]1C5 (stereo not given in full)
Effect (Rattus norvegicus [34]): no analgesia observed | Effect (Rattus norvegicus [35]): no analgesia observed | Effect (Rattus norvegicus [36]): no analgesia observed | Effect (Rattus norvegicus [37]): no analgesia observed | Activity (Rattus norvegicus [38]): inhibited | Effect (Rattus norvegicus [39]): no analgesia observed | Effect (Rattus norvegicus [40]): no analgesia observed

C=CCN1CC[C@]23c4c5ccc(O)c4O[C@H]2C(=O)CC[C@@]3(O)[C@H]1C5
Activity (Rattus norvegicus [41]): inactive | Activity (Rattus norvegicus [42]): inactive | Activity (Rattus norvegicus [43]): inactive

CN1CC[C@]23c4c5ccc(O)c4O[C@H]2[C@@H](O)C=C[C@H]3[C@H]1C5 [MORPHINE]
Effect (Rattus norvegicus [44]): 70%

CN1CC[C@]23c4c5ccc(O[C@@H]6O[C@H](C(=O)O)[C@@H](O)[C@H](O)[C@H]6O)c4O[C@H]2[C@@H](O)C=C[C@H]3[C@H]1C5 (stereo in doubt; form 1)
Activity (Rattus norvegicus [1]): inactive | Activity (Rattus norvegicus [41]): inactive | Activity (Rattus norvegicus [2]): inactive | Activity (Rattus norvegicus [42]): inactive | Activity (Rattus norvegicus [45]): inactive | Activity (Rattus norvegicus [3]): inactive
